Blank lines part the entries; values can stand above or below the molecule they belong to. The source made the active and inactive calls.
How the values were obtained:
Steroidogenic factor 1 = Steroidogenic factor 1 (Homo sapiens, UniProt Q13285); test: Counterscreen for inverse agonists of the liver receptor homolog-1 (LRH-1; NR5A2): Luminescence-based cell-based high throughput dose response assay to identify inverse agonists of the Steroidogenic Factor 1 Nuclear Receptor (SF1; NR5A1).; assay type: functional
Chain of Steroidogenic factor 1 (Q13285 whole entry): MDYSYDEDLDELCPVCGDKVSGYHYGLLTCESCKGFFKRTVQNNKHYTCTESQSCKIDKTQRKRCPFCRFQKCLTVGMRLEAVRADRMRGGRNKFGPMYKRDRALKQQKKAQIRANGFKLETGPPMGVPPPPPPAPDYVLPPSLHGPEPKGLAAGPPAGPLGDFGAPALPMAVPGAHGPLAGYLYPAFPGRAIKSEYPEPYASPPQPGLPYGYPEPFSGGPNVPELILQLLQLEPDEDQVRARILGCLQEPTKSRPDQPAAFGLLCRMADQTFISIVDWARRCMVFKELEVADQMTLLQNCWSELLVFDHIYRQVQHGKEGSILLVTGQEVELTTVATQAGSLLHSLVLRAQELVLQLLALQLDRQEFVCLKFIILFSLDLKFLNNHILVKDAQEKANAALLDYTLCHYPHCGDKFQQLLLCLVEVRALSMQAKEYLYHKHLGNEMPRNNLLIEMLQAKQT

[1] = StAR promoter reporter inhibition counter-screen, dose response, counter-screen for LRH-1 inverse agonist project, cell-based, luminescence, luciferase reporter (AID 651969); assay type: functional
[2] = target: Nuclear receptor subfamily 5 group A member 2 (Homo sapiens, UniProt O00482); assay type: functional, cell-based;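 note: HEK293T cells transfected with LRH-1 and a StAR promoter luciferase reporter; potency for inhibitors that lower LRH-1 driven reporter light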
Chain of Nuclear receptor subfamily 5 group A member 2 (O00482 whole entry): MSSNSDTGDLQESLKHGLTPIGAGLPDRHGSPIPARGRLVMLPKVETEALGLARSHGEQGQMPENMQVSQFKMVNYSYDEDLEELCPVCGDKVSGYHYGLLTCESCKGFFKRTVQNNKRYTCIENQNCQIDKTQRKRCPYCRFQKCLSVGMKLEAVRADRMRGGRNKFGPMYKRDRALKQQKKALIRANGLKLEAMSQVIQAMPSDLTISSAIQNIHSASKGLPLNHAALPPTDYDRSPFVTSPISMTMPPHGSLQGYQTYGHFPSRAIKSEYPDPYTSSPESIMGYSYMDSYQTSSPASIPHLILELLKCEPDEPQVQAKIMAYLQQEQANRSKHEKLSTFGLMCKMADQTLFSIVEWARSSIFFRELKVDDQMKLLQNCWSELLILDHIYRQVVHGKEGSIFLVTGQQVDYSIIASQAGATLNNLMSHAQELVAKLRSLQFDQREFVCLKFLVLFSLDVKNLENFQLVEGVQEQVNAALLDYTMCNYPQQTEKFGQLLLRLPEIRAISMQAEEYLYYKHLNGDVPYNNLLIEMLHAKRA

[3] = Counterscreen for inhibitors of Trypanosoma brucei methionyl tRNA synthetase (MetRS): Luminescence-based cell-based high throughput dose response assay to identify compounds that are cytotoxic to Jurkat human T lymphocyte cells.; assay type: functional
[4] = target: T1, Apoptotic protease-activating factor 1 (Homo sapiens, UniProt O14727); test: SAR analysis of small molecule Activators of Apaf-1 in a Fluorescent assay.; assay type: functional; conditions: read-out: EC50_Mean;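 note: caspase-3 cleavage of fluorogenic Rh110 DEVD substrate downstream of apoptosome activation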
T1 sequence (O14727 whole entry): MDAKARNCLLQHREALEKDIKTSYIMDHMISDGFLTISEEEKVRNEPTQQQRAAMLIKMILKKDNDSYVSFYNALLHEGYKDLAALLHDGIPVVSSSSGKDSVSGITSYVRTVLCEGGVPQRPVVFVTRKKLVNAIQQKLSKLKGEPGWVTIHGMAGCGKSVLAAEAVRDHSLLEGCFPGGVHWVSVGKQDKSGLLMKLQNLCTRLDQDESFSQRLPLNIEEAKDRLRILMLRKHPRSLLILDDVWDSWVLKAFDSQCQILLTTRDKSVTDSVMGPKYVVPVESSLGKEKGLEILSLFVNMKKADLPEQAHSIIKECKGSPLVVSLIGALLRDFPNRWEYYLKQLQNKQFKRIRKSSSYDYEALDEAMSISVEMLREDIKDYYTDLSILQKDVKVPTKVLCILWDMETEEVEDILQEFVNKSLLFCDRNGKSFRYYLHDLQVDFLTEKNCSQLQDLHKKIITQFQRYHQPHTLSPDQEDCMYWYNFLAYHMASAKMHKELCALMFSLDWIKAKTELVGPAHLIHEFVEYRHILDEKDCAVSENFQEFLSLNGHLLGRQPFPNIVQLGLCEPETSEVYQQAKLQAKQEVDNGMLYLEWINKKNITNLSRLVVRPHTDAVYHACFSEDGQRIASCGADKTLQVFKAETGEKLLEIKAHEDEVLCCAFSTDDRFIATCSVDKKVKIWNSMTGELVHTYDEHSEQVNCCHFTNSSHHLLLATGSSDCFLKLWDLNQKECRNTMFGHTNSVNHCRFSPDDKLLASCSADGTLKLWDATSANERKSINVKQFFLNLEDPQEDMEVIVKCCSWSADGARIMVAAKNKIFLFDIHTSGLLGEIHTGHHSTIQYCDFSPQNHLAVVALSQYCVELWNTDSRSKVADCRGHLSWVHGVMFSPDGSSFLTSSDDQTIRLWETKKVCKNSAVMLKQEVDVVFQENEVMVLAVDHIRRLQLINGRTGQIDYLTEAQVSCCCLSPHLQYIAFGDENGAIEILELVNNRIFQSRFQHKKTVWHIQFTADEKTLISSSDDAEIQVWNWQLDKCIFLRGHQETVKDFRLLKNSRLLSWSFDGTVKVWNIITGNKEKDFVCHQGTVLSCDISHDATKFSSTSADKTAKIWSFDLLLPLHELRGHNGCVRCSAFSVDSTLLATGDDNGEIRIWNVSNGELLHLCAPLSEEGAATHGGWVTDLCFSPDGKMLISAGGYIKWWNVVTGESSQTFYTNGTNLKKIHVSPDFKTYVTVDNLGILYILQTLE

[5] = target: T2, ATP-dependent translocase ABCB1 (Homo sapiens, UniProt P08183); test: ABCB1 efflux inhibitor potency, dose response, Jurkat-DNR cells, JC-1, flow cytometry, set 2 (AID 504569); assay type: functional; conditions: read-out: EC50_MICROM_;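 note: potency of pump inhibitors that raise cellular JC-1 green fluorescence up to the nicardipine level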
T2 sequence (P08183 whole entry): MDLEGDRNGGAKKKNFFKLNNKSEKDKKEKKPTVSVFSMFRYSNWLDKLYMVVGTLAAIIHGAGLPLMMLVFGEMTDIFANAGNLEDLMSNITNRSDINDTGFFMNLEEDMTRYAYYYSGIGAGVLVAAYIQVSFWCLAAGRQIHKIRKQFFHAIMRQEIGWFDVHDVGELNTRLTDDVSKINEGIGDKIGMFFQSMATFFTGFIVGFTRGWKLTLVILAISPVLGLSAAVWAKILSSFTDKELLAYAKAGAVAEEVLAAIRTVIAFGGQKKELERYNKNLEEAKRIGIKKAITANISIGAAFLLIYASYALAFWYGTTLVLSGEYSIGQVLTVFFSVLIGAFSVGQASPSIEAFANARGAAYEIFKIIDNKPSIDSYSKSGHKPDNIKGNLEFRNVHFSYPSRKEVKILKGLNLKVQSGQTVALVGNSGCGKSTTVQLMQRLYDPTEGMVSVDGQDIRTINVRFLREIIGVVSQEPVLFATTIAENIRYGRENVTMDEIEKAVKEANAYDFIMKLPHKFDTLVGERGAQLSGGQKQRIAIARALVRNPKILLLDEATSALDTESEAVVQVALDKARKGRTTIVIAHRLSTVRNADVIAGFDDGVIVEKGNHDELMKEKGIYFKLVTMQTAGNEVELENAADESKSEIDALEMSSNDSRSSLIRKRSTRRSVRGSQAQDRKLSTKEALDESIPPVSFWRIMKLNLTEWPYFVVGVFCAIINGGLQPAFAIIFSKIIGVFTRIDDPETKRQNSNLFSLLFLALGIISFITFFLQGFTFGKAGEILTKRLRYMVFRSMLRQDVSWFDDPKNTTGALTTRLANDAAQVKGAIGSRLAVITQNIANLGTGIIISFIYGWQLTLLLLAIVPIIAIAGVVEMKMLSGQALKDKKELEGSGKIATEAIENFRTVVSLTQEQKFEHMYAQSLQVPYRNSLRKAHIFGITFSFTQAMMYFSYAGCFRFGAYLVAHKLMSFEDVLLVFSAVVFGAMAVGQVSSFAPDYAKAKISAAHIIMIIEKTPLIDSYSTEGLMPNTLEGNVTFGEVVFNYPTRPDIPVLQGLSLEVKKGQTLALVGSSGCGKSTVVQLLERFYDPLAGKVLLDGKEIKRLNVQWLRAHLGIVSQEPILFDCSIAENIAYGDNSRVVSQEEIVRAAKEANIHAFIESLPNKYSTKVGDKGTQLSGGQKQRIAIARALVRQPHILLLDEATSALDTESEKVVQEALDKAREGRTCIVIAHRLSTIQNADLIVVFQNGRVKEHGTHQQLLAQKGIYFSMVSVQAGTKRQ

[6] = target: T2, ATP-dependent translocase ABCB1; test: ABCG2 efflux pump inhibitor potency, dose response, Ig-MXP3 cells, JC-1, flow cytometry, set 2 (AID 504566); assay type: functional; conditions: read-out: EC50_MICROM_;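 note: flow cytometry median green fluorescence of retained JC-1 dye; potency of efflux pump inhibition measured as rising substrate retention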
[7] = target: Diacylglycerol lipase-beta (Mus musculus, UniProt Q91WC9); test: Late stage assay provider results from the probe development effort to identify inhibitors of diacylglycerol lipase, beta (DAGLb): fluorescence-based dose-response biochemical gel-based competitive Activity-Based Protein Profiling (ABPP) inhibition of DAGLb in vitro.; assay type: functional
Chain of Diacylglycerol lipase-beta (Q91WC9 whole entry): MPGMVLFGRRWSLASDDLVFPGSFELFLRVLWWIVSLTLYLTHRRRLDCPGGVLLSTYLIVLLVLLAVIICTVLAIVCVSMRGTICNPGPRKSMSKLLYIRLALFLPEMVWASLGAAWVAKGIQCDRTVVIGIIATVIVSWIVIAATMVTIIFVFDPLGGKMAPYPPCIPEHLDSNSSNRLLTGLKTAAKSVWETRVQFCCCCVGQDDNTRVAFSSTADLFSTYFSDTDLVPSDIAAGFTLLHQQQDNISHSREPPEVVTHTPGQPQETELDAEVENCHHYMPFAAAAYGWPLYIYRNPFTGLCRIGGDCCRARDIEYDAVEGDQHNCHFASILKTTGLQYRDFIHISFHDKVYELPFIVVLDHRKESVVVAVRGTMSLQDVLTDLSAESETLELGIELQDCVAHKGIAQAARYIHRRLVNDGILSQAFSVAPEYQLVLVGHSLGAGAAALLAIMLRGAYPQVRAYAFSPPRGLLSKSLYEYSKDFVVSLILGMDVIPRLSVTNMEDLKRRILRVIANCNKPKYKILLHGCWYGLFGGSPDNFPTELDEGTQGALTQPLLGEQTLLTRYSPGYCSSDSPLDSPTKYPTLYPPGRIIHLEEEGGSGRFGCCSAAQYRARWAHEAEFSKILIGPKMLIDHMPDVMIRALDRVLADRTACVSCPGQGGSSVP

[8] = target: T3, Low molecular weight phosphotyrosine protein phosphatase (Homo sapiens, UniProt P24666); assay type: functional; conditions: read-out: IC50_Mean
T3 sequence (P24666 whole entry): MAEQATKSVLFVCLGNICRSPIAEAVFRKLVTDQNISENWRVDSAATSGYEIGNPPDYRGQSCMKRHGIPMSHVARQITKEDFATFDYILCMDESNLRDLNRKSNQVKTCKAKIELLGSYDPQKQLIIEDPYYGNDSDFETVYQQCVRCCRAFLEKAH

[9] = target: T3, Low molecular weight phosphotyrosine protein phosphatase; assay type: functional; conditions: read-out: IC50_Mean; remark: listed apart in the source
[10] = target: Photoreceptor-specific nuclear receptor (Homo sapiens, UniProt Q9Y5X4); assay type: functional, cell-based;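 note: CHO-S cells with Gal4-NCOR and VP16-NR2E3 two-hybrid luciferase reporter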
Chain of Photoreceptor-specific nuclear receptor (Q9Y5X4 whole entry, the tested form may be a part): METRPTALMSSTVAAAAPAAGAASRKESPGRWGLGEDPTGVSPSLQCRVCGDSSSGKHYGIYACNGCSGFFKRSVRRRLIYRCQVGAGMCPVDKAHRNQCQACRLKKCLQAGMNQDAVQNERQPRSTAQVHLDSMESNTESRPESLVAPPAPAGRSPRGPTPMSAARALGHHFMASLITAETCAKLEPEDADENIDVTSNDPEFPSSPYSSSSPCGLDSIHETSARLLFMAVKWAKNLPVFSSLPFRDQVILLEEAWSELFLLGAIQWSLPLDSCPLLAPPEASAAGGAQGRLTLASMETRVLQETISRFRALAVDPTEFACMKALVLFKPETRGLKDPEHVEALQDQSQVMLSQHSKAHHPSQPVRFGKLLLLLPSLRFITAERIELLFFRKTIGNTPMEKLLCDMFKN

[11] = Shn3 3'UTR reporter inhibitors, dose response, cell-based, Clone20 osteoblasts, firefly luciferase, cherry-picked (AID 624132); assay type: functional;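 note: firefly luciferase luminescence from reporter carrying the Shn3 3'UTR in osteoblasts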
[12] = HepG2 cell cytotoxicity, dose response, cytotoxicity control for Shn3 inhibitor project, CellTiter-Glo, cherry-picked (AID 624134); assay type: functional, cell-based
[13] = target: T4, Microphthalmia-associated transcription factor (Homo sapiens, UniProt O75030); test: TRPM1 promoter luciferase signal decrease, dose response, MITF inhibitor project, cell-based, SK-MEL-5, cherry-picked, set 3 (AID 493073); assay type: functional
T4 sequence (O75030 whole entry): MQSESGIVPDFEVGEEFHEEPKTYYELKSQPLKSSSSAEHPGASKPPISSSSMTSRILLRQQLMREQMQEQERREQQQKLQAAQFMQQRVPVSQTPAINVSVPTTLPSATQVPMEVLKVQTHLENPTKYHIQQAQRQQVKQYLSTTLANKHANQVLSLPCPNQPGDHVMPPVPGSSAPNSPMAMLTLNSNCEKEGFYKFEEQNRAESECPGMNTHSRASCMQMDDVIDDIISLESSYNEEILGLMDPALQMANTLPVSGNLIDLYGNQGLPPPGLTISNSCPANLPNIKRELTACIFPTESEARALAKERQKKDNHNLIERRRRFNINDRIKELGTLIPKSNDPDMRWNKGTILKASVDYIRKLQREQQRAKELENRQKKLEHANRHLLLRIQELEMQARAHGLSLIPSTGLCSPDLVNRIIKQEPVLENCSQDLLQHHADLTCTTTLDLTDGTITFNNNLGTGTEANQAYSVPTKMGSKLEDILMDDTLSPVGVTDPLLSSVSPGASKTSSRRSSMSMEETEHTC

Interleukin-8 [14] = target: T5, Interleukin-8 (Homo sapiens, UniProt P10145); test: Dose Response confirmation of uHTS small molecule hits for cystic fibrosis induced NFkb Inhibitors in a TNFa-induced IL8 counterscreen.; assay type: functional; conditions: read-out: IC50_Mean
T5 sequence (P10145 whole entry): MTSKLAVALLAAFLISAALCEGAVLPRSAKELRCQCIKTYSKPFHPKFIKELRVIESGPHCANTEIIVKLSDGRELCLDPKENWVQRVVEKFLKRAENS

Interleukin-8 [15] = target: T5, Interleukin-8; test: Dose Response confirmation of uHTS small molecule hits for cystic fibrosis induced NFkb Inhibitors in a PAF-induced IL8 counterscreen.; assay type: functional; conditions: read-out: IC50_Mean
[16] = target: 72 kDa type IV collagenase (Homo sapiens, UniProt P08253); test: Dose Response validation of uHTS RPN11 inhibitor hits using a MMP-2 Fluorescence assay.; assay type: functional
Chain of 72 kDa type IV collagenase (P08253 whole entry): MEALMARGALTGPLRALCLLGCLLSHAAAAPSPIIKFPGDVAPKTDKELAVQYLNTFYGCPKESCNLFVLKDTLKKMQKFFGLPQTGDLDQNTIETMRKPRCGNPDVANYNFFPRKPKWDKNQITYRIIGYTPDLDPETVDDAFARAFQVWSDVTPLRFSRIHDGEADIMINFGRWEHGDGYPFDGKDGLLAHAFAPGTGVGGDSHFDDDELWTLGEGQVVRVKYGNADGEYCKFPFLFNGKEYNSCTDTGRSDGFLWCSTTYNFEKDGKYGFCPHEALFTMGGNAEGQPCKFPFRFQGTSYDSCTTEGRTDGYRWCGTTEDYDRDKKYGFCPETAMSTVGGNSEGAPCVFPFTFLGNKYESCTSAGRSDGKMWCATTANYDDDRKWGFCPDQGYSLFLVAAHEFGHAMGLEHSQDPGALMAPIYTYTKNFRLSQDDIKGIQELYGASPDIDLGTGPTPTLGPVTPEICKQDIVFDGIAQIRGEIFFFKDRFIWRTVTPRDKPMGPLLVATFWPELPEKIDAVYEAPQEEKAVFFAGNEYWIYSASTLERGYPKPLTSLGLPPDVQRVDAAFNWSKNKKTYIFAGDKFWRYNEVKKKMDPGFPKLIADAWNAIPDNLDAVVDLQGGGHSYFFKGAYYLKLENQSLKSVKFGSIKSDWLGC

[17] = target: DNA (cytosine-5)-methyltransferase 1 (Homo sapiens, UniProt P26358); test: DNMT1 methyltransferase inhibitors, confirmation, biochemical, fluorescent molecular beacon (AID 602386); assay type: functional
[18] = target: T6, Histone-lysine N-methyltransferase NSD2 (Homo sapiens, UniProt O96028); assay type: biochemical
T6 sequence (O96028 whole entry): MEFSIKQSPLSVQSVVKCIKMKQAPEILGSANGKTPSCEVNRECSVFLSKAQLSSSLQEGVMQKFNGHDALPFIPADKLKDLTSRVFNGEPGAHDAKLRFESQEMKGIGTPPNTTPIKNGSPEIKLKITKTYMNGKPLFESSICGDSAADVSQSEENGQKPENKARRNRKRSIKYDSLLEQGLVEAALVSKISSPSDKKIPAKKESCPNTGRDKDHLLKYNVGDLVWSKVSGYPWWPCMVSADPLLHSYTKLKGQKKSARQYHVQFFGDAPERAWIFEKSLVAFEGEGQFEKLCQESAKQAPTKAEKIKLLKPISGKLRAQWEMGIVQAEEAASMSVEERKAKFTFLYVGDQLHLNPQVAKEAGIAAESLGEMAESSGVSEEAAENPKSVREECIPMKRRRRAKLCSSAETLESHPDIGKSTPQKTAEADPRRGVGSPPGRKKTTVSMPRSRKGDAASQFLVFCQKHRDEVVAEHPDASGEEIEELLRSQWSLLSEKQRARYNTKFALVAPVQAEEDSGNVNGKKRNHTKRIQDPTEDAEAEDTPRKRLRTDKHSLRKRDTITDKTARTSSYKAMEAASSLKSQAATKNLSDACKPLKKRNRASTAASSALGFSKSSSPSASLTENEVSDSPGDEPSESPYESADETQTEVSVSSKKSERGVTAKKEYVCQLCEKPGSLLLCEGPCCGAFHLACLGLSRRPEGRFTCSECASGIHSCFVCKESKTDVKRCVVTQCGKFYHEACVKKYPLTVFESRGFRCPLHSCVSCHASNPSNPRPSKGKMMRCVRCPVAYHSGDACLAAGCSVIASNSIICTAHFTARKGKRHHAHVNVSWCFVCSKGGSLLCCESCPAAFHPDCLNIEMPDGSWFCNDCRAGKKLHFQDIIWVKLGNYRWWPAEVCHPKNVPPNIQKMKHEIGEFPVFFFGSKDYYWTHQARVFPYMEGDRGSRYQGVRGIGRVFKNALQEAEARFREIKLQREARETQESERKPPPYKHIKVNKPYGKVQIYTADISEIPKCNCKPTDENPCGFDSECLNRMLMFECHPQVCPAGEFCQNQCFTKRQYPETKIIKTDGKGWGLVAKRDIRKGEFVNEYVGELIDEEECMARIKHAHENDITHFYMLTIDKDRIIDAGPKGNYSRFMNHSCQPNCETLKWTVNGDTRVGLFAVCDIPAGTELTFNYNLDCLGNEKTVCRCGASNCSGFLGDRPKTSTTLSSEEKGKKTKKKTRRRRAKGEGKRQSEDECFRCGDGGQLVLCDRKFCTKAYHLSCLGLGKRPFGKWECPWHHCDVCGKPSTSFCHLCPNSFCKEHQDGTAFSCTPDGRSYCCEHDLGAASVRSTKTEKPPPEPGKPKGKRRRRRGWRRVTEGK

[19] = target: 26S proteasome non-ATPase regulatory subunit 14 (Homo sapiens, UniProt O00487); test: inhibition of proteasome subunit RPN11 – biochemical, fluorescence polarization, uHTS hits, confirmation (AID 602368); assay type: functional
Chain of 26S proteasome non-ATPase regulatory subunit 14 (O00487 whole entry): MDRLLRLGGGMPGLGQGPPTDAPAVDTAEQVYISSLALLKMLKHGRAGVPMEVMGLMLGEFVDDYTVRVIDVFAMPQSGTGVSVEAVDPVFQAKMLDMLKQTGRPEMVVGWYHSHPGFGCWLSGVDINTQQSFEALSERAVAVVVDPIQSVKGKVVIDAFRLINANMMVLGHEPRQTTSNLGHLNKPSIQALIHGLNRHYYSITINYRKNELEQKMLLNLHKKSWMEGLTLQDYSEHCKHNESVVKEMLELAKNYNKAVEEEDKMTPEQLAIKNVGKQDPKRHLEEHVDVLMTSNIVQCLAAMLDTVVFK

Prothrombin = Prothrombin (Bos taurus, UniProt P00735); test: thrombin inhibition, dose response, biochemical, fluorescence polarization, uHTS hits (AID 602369); assay type: functional
[20] = target: T7, Rac GTPase-activating protein 1 (Homo sapiens, UniProt Q9H0H5); test: MgcRacGAP GTPase-activating activity inhibitors, confirmation, biochemical, ADP Hunter fluorescence, primary and confirmatory (AID 624330); assay type: functional
T7 sequence (Q9H0H5 whole entry): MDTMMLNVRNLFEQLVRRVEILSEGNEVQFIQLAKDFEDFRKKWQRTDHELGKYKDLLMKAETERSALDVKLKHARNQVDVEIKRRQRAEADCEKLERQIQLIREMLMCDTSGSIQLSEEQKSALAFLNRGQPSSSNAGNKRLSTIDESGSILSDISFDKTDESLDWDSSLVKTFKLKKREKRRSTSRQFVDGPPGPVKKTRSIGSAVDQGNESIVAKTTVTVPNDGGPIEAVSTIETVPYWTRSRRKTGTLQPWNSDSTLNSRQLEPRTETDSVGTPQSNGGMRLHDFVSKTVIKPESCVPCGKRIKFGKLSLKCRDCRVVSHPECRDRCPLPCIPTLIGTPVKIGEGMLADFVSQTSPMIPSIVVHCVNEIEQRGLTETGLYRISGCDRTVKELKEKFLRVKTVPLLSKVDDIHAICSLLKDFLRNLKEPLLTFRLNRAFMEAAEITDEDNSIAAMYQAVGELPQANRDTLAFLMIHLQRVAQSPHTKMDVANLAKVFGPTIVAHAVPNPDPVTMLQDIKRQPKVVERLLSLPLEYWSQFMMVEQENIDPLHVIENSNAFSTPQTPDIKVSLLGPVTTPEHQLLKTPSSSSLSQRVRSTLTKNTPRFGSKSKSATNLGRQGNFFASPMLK

Structure (SMILES): O=C(CN1C(=O)NC2(CCCCC2)C1=O)NCCc1c[nH]c2ccccc12
IC50 (Steroidogenic factor 1): 5.36 µM (active) | IC50 [1]: 35.9 µM (inactive) | IC50 [2]: 10.3 µM (inactive)

Structure (SMILES): COc1ccc(N=C(S)N2CCC(c3nc4cc(Cl)ccc4[nH]3)CC2)c(OC)c1
IC50 [3]: 83.3 µM (inactive)

Structure (SMILES): Cc1ccc(NCC(C)C(=O)O)cc1C (configuration not stated)
EC50 [4]: > 100 µM (inactive)

Structure (SMILES): Cc1cc(C(=O)COc2cccnc2[N+](=O)[O-])c(C)n1-c1ccccc1
IC50 [10]: 0.517 µM (active) | AC50 [11]: 34.8 µM (active) | AC50 [12]: > 70 µM (inactive) | AC50 [13]: 1.48 µM (active)

Structure (SMILES): CC1=NN(c2ccccc2)C(=O)C1/C=C1\NC(=S)NC1=O (configuration not stated)
IC50 [16]: > 100 µM (inactive) | IC50 [17]: 8.39 µM (active) | AC50 [18]: 4.16 µM (active) | IC50 [19]: 32.4 µM (active) | IC50 (Prothrombin): 52.8 µM (active) | IC50 [20]: 238 µM (active)

Now from value to molecule:

EC50 [5]: 2.87 µM (active) | EC50 [6]: 0.72 µM (active)
Structure (SMILES): COc1ccccc1-c1cc2nc(-c3ccccc3)cc(N3CCN(C(=O)c4ccccc4)CC3)n2n1

IC50 [7]: 0.052 µM (active)
Structure (SMILES): O=C(N1CCCCC1Cc1ccccc1)n1cc(-c2ccc(OC(F)(F)F)cc2)nn1 (configuration not stated)

IC50 [8]: 13.1 µM (active) | IC50 [9]: 7.48 µM (active)
Structure (SMILES): Fc1ccccc1-c1nc(NC2CCCC2)c2ccccc2n1

IC50 (Interleukin-8 [14]): 56.5 µM (inactive) | IC50 (Interleukin-8 [15]): 14.4 µM (inactive)
Structure (SMILES): c1cc(-c2cnc3cccnn23)c2cccnc2c1
